How the values were obtained:
[1] = tested on: benign skin cells - fibroblasts (HDFa); experiment: MTT cell viability, benign fibroblasts; assay type: cell-based; settings: HDFa fibroblasts, 24, 48 and 72 h
Method: (§1) For the method of MTT, the cells were plated in 96-well sterile plates for cell culture with a cap at the density of 2 × 10^4 cells/well for treatments lasting 24 h and 1 × 10^4 cells/well for treatments lasting 48 h or more, completing the volume to 100 µL with culture medium. The plates were incubated for 8-16 h in an incubator at 37° C. and 5% CO2. The next day, the treatments were prepared in culture medium, applying 200 µL/well at the desired concentration, and the plates were placed in an incubator at 37° C. and 5% CO2for the duration of treatment. After the treatment period, 20 µL/well of a MTT solution was added in PBS (1×) at a concentration of 5 mg/mL, and the dye was incubated at 37° C. and 5% CO2 for 2.5 h. After incubation with MTT, Formazan salts were solubilized with the addition of 200 µL of dimethylsulfoxide solution (DMSO): isopropanol (3:1) and agitated for at least 15 minutes at room temperature. After complete dissolution of the salts, the absorbance was read in a spectrophotometer at 570 nm with endpoint protocol.
(§2) The calculation of cell viability was performed using the formula: […]
(§3) O.D.: optical density captured by spectrophotometer
NOTE: The Basal O.D. is the one found in the blank wells. […]

MDAMB231 cell line = experiment: Cell cycle progression (propidium iodide flow cytometry); assay type: cell-based; settings: MDAMB231, 48 h, highest dosage
Method: For cell cycle progression method, cells were plated in 6-well sterile plates for cell culture with a cap at the density of 2.5 × 10^5 cells/well for treatments lasting 24 h or more, completing the volume with 1000 µL culture medium. The plates were incubated for 8-16 h in an incubator at 37° C. and 5% CO2. The next day, the treatments were prepared in culture medium, applying 2000 µL/well at the desired concentration, and the plates were placed in an incubator at 37° C. and 5% CO2 for the duration of treatment. After the treatment period, cells were collected in a conic 15 mL tube and washed with 1000 µL of PBS (1×). Cells were resuspended in 500 µL/tube of PBS (1×) and 4.5 mL of Ethanol 70°. Then, tubes were closed and kept at 2-4° C. for up to 2 months. Cells were washed with PBS (1×) and resuspended with 135 µL of PBS (1×). A solution of RnaseA at 100 µg/mL was added and incubated at RT for 30 minutes. After incubation, cells were labeled with 2 µL of Propidium Iodide at 100 µg/mL and read at the flow cytometer for size and DNA content.
In order to determine the effects of the peptide in cell cycle progression (MDAMB231 cell line), the Analysis of Variance (ANOVA) with Dunnet post-hoc test was applied to the significance of 5% in GraphPad Prism software version 6.0.

[2] = tested on: NFKB, Caspases (Caspase 9); experiment: Western blot protein expression; assay type: cell-based; settings: compared to the negative control
zebrafish embryos = experiment: Tolerability in zebrafish embryos; assay type: in vivo; settings: even at a dose 50,000 times higher than the in vitro MDAMB231 IC50 at 24 h
[3] = tested on: Triple negative breast tumor cells (MDAMB231); experiment: Observation of triple negative breast tumor cells after treatment (FIG. 3/4); assay type: cell-based; settings: MDAMB231, treated for 24 h
Method: FIG. 3 illustrates the untreated triple negative tumor cells, presented in large numbers.
FIG. 4 illustrates the tumor cells after being treated with the peptide 3-NantC (SEQ ID 1) for 24h. The arrows indicate the tumor cells, which are shown in smaller numbers and with vesicles when compared with the untreated tumor cells.

MDAMB231 cells [4] = experiment: BrdU cellular proliferation, tumor cells; assay type: cell-based; settings: MDAMB231, 24 h, 0.2 µg/mL (minimum decrease)
Method: The method of Bomodeoxyuridine (BrdU) quantification was carried out according to the Standard Operational Protocols Nos. 10 and 12 of the Laboratory of Clinical Cytology of the Faculty of Pharmaceutical Sciences of Ribeirao Preto (FCFRP -USP). In this method, for the BrdU quantification, cells were plated in 96-well sterile plates for cell culture with a cap at the density of 2 × 10^4 cells/well for treatments lasting 24 h and 1 × 10^4 cells/well for treatments with 48 h or more, completing the volume to 100 µL with culture medium. The plates were incubated for 8-16 h in an incubator at 37° C. and 5% CO2. The next day, the treatments were prepared in culture medium, applying 200 µL/well at the desired concentration, and the plates were placed in an incubator at 37° C. and 5% CO2 for the duration of treatment. After the treatment period, 20 µL/well of a BrdU-labeling was added and incubated at 37° C. and 5% CO2 for 2.5 h. After incubation with BrdU labeling, the plates were stored at 2-4° C. up to 1 week. […] Substrate was developed for 15 minutes and reaction was stopped with HCl 6 M solution and read in a spectrophotometer at 495 nm with endpoint.
The calculation of cell proliferation was performed using the formula: […]
O.D.: optical density captured by spectrophotometer NOTE: The Basal O.D. is the one found in the blank wells. […]

[5] = tested on: Rho-GTPases (Rho-A, Rho-C), protein elongation mechanism; experiment: Proteomics analysis; assay type: cell-based; settings: data not shown
MDAMB231 cells [6] = experiment: MTT with or without autophagy inhibitor 3-methyladenine (3-MA); assay type: cell-based
Method: The 3-Methyladenine (3-MA) is an autophagy inhibitor (blocks the activation of this mechanism of action). For molecules that trigger autophagy as a cell death mechanism when this pathway is blocked the molecule loses action.
The MTT method was carried out as previously described herein, comparing the effect of 3-NAntC with or without 3-Methyladenine (3-MA).
In order to determine the effects of the peptide in LDH release, autophagy induction and apoptosis/necrosis profile of MDAMB231 cell line, the Analysis of Variance (ANOVA) with Dunnet and Bonferroni post-hoc tests were applied to the significance of 5% in GraphPad Prism software version 6.0.

[7] = tested on: MDAMB231 cells (triple negative); experiment: MTT cell viability, tumor cells; assay type: cell-based
Method: as §1, §2, §3
NOTE: The Basal O.D. is the one found in the blank wells.
In order to determine the efficacy (comparison of doses and times for the MDAMB231 cell line) and safety (comparison between the effects on MDAMB231 and HDFa cells) of the peptide SEQ ID 1 - MFYPDSRCRGPSET (C-terminal region of Crotoxin B), named 3-NAntC, the Analysis of Variance (ANOVA) with Bonferroni post-hoc test was applied to the significance of 5% in GraphPad Prism software version 6.0.

CSCC[C@H](N)C(=O)N[C@@H](Cc1ccccc1)C(=O)N[C@@H](Cc1ccc(O)cc1)C(=O)N1CCC[C@H]1C(=O)N[C@@H](CC(=O)O)C(=O)N[C@@H](CO)C(=O)N[C@@H](CCCNC(=N)N)C(=O)N[C@@H](CS)C(=O)N[C@@H](CCCNC(=N)N)C(=O)NCC(=O)N1CCC[C@H]1C(=O)N[C@@H](CO)C(=O)N[C@@H](CCC(=O)O)C(=O)N[C@H](C(=O)O)[C@@H](C)O [3-NAntC, [H]-MFYPDSRCRGPSET-[OH]]
effect on viability of benign skin cells (MTT) [1]: not decreasing the viability
decrease in cells in G0/G1 (MDAMB231 cell line): 8.72%
increase of G2/M percentage (MDAMB231 cell line): 8.08%
activation of Caspases, namely Caspase 9 [2]: greater activation
activation of pro-survival signals such as NFKB [2]: may inhibit the activation
embryo survival (zebrafish embryos): high embryo survival
tolerability in zebrafish embryos (zebrafish embryos): well tolerated
number of tumor cells compared to no treatment [3]: lower numbers
number of vesicles compared to no treatment [3]: greater number of vesicles
decrease of proliferation rate (BrdU) (MDAMB231 cells [4]): 33%
Rho-GTPases expression (e.g. Rho-A and Rho-C) [5]: diminished
protein elongation mechanism [5]: continuously disabling
activity with and without the autophagy inhibitor 3-MA (MTT) (MDAMB231 cells [6]): remains the same
compared efficacy in decreasing MDAMB231 cells' viability (MTT, FIG. 13/14) ([7]; MDAMB231, SEQ IDs 2-10 compared to SEQ ID 1): highest antitumor effect
antitumor effect compared to Cisplatin (MTT) ([7]; MDAMB231, as early as 48 h of treatment): exceeds the antitumor effect of Cisplatin

Source: US20230364204A1, “Bioactive Peptides, Compositions, Production Process, and Use of Bioactive Peptides as Anti-Tumoral Agents” (priority 2022, published 2023)
